Results as given in ChEMBL document CHEMBL6096669, “Design and synthesis of novel derivatives of bisepoxylignans as potent anti-inflammatory agents involves the modulation of the M1/M2 microglia phenotype via TLR4/NF-κB signaling pathway” (Eur J Med Chem, 2025).
Calls of active or inactive are those of the source. The calls are words filed in the database; no cut-off is given here.

Assays:
Mus musculus [1] = test: Anti-neuroinflammatory activity against LPS-induced male C57BL/6 mouse assessed as suppression of LPS-induced pathological changes in lung at 20 mg/kg, po administered for 3 days followed by induced with LPS by tail vein injection by hematoxylin-eosin staining based assay; assay type: functional, organism-based; conditions: time 3.0 day
BV-2 [2] = test: Anti-inflammatory activity against LPS-induced mouse BV-2 cells assessed as decrease in LPS-induced iNOS mRNA expression at 5 uM incubated for 4 hrs followed by LPS induced for 12 hrs by RT-PCR analysis relative to control; assay type: functional, cell-based; conditions: time 16.0 hrs
Mus musculus [3] = test: Anti-neuroinflammatory activity against LPS-induced male C57BL/6 mouse assessed as suppression of LPS-induced p-IkappaB-alpha protein level at 20 mg/kg, po administered for 3 days followed by induced with LPS by tail vein injection by Western blot analysis; assay type: functional, organism-based; conditions: time 3.0 day
Mus musculus [4] = test: Anti-neuroinflammatory activity against LPS-induced male C57BL/6 mouse assessed as suppression of LPS-induced TNF-alphamRNA level at 20 mg/kg, po administered for 3 days followed by induced with LPS by tail vein injection by RT-PCR analysis; assay type: functional, organism-based; conditions: time 3.0 day
[5] = Biodistribution in C57BL/6 mouse lung at 20 mg/kg, IG measured after 15 mins; assay type: ADME, organism-based; conditions: in vivo, po, 0.25 h
Mus musculus [6] = test: Anti-neuroinflammatory activity against LPS-induced male C57BL/6 mouse assessed as suppression of LPS-induced pathological changes in kidney at 20 mg/kg, po administered for 3 days followed by induced with LPS by tail vein injection by hematoxylin-eosin staining based assay; assay type: functional, organism-based; conditions: time 3.0 day
BV-2 [7] = test: Anti-inflammatory activity against LPS-induced mouse BV-2 cells assessed as decrease in LPS-induced TLR4 production incubated for 4 hrs followed by LPS induced for 24 hrs by […]; assay type: functional, cell-based; conditions: dose 5-20 µM, time 28.0 hrs
Mus musculus [8] = test: Anti-neuroinflammatory activity against LPS-induced male C57BL/6 mouse assessed as suppression of LPS-induced IL-6 mRNA level at 20 mg/kg, po administered for 3 days followed by induced with LPS by tail vein injection by RT-PCR analysis; assay type: functional, organism-based; conditions: time 3.0 day
BV-2 [9] = test: Anti-neuroinflammatory activity against LPS-induced mouse BV-2 cells assessed as smaller cell bodies and morphology at 20 uM by bright field microscopy relative to LPS-induced control; assay type: functional, cell-based
[10] = Acute toxicity in C57BL/6 mouse assessed as change in BUN level at 500 mg/kg, po single dose measured on day 8; assay type: organism-based; conditions: in vivo
[11] = Biodistribution in C57BL/6 mouse spleen at 20 mg/kg, IG measured after 15 mins; assay type: ADME, organism-based; conditions: in vivo, po, 0.25 h
[12] = Acute toxicity in C57BL/6 mouse assessed as change in ALT level at 500 mg/kg, po single dose measured on day 8 by ALT/GPT test kit; assay type: organism-based; conditions: in vivo
BV-2 [13] = test: Anti-inflammatory activity against LPS-induced mouse BV-2 cells assessed as decrease in LPS-induced iNOS production incubated for 4 hrs followed by LPS induced for 24 hrs by Western blotting analysis; assay type: functional, cell-based; conditions: dose 5-20 µM, time 28.0 hrs
BV-2 [14] = test: Anti-inflammatory activity against LPS-induced mouse BV-2 cells assessed as decrease in LPS-induced IL-1beta mRNA expression at 10 to 20 uM incubated for 4 hrs followed by LPS induced for 12 hrs by RT-PCR analysis relative to control; assay type: functional, cell-based; conditions: dose 10-20 µM, time 16.0 hrs
BV-2 [15] = test: Anti-inflammatory activity against LPS-induced mouse BV-2 cells assessed as decrease in LPS-induced TNF-alpha mRNA expression at 10 to 20 uM incubated for 4 hrs followed by LPS induced for 12 hrs by RT-PCR analysis relative to control; assay type: functional, cell-based; conditions: dose 10-20 µM, time 16.0 hrs
[16] = AUMClast in rat at 20 mg/kg, po single dose; assay type: ADME, organism-based; conditions: in vivo

## O=c1[nH]c2ccc(Nc3ncnc4c3ccn4Cc3ccc(F)cc3)cc2[nH]1
Mus musculus [1]
  Activity: Active; Decreased Lps-Induced Visceral Injury (Cell Morphology, Hemorrhage, And Neutrophil Infiltration) And Maintaining Normal Cell Shape And Arrangement And Enhancing Infiltration Of Inflammatory Cells
BV-2 [2]
  Activity: Not active; No Significant Effect Observed Vs Lps
Mus musculus [3]
  Activity: Active
Mus musculus [4]
  Activity: Active
[5]
  Drug uptake: Active
Mus musculus [6]
  Activity: Active; Decreased Lps-Induced Visceral Injury (Cell Morphology, Hemorrhage, And Neutrophil Infiltration) And Maintaining Normal Cell Shape And Arrangement And Enhancing Infiltration Of Inflammatory Cells
BV-2 [7]
  Activity: Dose-dependent-effect
Mus musculus [8]
  Activity: Active
BV-2 [9]
  Activity: Active
[10]
  Activity: Non-toxic
[11]
  Drug uptake: Active
[12]
  Activity: Non-toxic
BV-2 [13]
  Activity: Dose-dependent-effect
BV-2 [14]
  Activity: Active
BV-2 [15]
  Activity: Active
[16]
  AUMClast: 269972.2 hr.hr.ng/ml
